Laboratory results as given in publication PMC11124341, “4-Hydroxybenzoic Acid-Based Hydrazide–Hydrazones as Potent Growth Inhibition Agents of Laccase-Producing Phytopathogenic Fungi That Are Useful in the Protection of Oilseed Crops” (Molecules, 2024).
Converted amounts (≈) assume the structure as drawn. Where two headings read alike, the source gives them in different places.

Key:
MCF-10A cells = assay: Antiproliferative assay in vitro (SRB); type: cell-based, human; conditions: read-out: Average IC50 ± SD, MCF-10A line
Protocol: (§1) Antiproliferative tests were performed on a normal human breast cell line, MCF-10A, and a mouse embryonic fibroblast: Balb/3T3. Both cell lines were obtained from the American Type Culture Collection (Rockville, MD, USA). The cell lines were maintained in the Institute of Immunology and Experimental Therapy, Wroclaw, Poland. MCF-10A cells were cultured in the F-12 nutrient mixture (Gibco, Scotland, UK), supplemented with 5% horse serum (Gibco, Scotland, UK), […] (Vibrio cholerae Pacini), 10 μg/mL of hydrocortisone and 20 ng/mL of human epidermal growth factor (all from Sigma-Aldrich, Chemie GmbH, Steinheim, Germany). Balb/3T3 cells were cultured in Dulbecco medium (Gibco, Darmstadt, Germany) supplemented with 10% fetal bovine serum (Thermo Fisher Scientific, Waltham, MA, USA) and 2 mM l-glutamine (Sigma-Aldrich, St. Louis, MO, USA). All culture media contained antibiotics: 100 U/mL penicillin (Sigma-Aldrich, St. Louis, MO, USA) and 100 µg/mL streptomycin (Polfa-Tarchomin, Warsaw, Poland). Both cell lines were cultured during the entire experiment in a humid atmosphere at 37 °C and 5% CO2. Amistar 250 SC (fungicide) with active compound azoxystrobin was provided by the Institute of Soil Science and Plant Cultivation, National Research Institute in Pulawy, Department of Weed Science and Tillage Systems in Wroclaw, Poland […].
(§2) Twenty-four hours prior to the applications of the tested compounds, MCF-10A and Balb/3T3 cells were plated in 96-well plates at a density of 10^4 cells per well and cultured at 37 °C in a humid atmosphere saturated with 5% CO2 for 24 h. Stock solutions of the compounds were prepared ex tempore for each test by dissolving in DMSO. The cells were also exposed to the reference drugs: cis-platin (Accord, London, UK) (10–0.01 µg/mL) and DMSO (Sigma-Aldrich) (at the concentrations corresponding to those in the tested agent dilutions). The solutions were then diluted in culture medium RPMI 1640 + Opti-MEM (1:1) (both from Gibco, Scotland, UK), supplemented with 2 mM l-glutamine, 5% fetal bovine serum (all from Sigma-Aldrich Chemie GmbH, Steinheim, Germany). An assay was performed after 72 h of exposure to the tested compounds 13, 17, 18, 19, 25, 27, 30, 4-hba, 4-hbah, and 3,4,5-hba (0.5, 5.0, 50, and to 500 µM) and azoxystrobin fungicide (0.05, 0.5, 5.0 and 50 µM). The antiproliferative effect in vitro was determined by the SRB method (sulforhodamine B colorimetric assay). The optical densities of the samples were measured on the Synergy H4 photometer (BioTek Instruments, Winooski, VT, USA) at 540 nm. The results were calculated as 50% inhibitory concentration (IC50), namely the dose of the tested compound inhibiting proliferation of the tested cells by 50% as compared to the untreated control cells, in the Prolab-3 system based on Cheburator 0.4 software using the two-point method. Each test was repeated 3–5 times.
(§3) Cytotoxicity was performed on two normal cell lines: MCF -10A and Balb/3T3, using as controls cis-platin in the concentrations of 0.03 32, 0.3 32, 3.32 and 33.2 µM and azoxystrobin fungicide in the […]
(§4) were tested in the concentrations of 0.5, 5.0, 50, and 500 µM. The relation of compound concentration […]
(§5) Further, a comparison of the influence of each tested concentration in the group of tested compounds on cell lines was illustrated in Figure S130 a (MCF-10A) and b (Balb/T3T).
(§6) Table S4. Cytotoxicity results for compounds 13, 17, 18, 19, 25, 27, and 30 investigated on normal mammalian lines: MCF -10A and B alb/3T3 using Azoxystrobin (fungicide) and cis-platin as reference compounds.
(§7) Cytotoxicity profile presented as proliferation inhibition, % (y -axis) in the function of compound concentration, […]
(§8) Structure MCF-10A Balb/3T3
(§9) Proliferation inhibition [%] […]

Balb/3T3 cells = assay: Antiproliferative assay in vitro (SRB); type: cell-based, mouse; conditions: read-out: Average IC50 ± SD, Balb/3T3 line
Protocol: as §1, §2, §3, §4, §5, §6, §7, §8, §9

[1] = system: Cerrena unicolor strain no. 139; assay: In vitro antifungal activity, mycelial growth inhibition on PDA medium; type: cell-based; conditions: Cerrena unicolor, NO.139; screening at basal 50 µg/mL, PDA medium, mean ± SD of three determinations; read-out: fungal growth inhibition, C. unicolor
Protocol: (§10) The cultures of Botrytis cinerea strain FBc05 and Sclerotinia sclerotiorum strain FSc10 were obtained from the collection of the Division of Plant Pathology and Mycology at the Department of Plant Protection of Wroclaw University of Environmental and Life Sciences (Poland). Cerrena unicolor (Bull.ex.Fr.) Murr, strain no. 139, originated from the culture collection of the Department of Biochemistry, University of Lublin (Poland). The stock cultures were maintained on potato dextrose agar at +4 °C and periodically transferred to a fresh medium.
(§11) Prior to the fungicidal activity assay of hydrazide–hydrazones 1–35, we considered ethanol and DMSO as potential dissolution media for tested compounds. […] Furthermore, a very important aspect of biological testing is the careful selection of organic solvents. These are typically used, e.g., methanol, ethanol, acetone, and DMSO, and may be highly toxic for microorganisms in even very low concentrations, such as 1% (v/v). Ethanol and DMSO with a final concentration between 0.1 and 1.0% (v/v) in a PDA medium were used and applied to evaluate the inhibition growth of B. cinerea, S. sclerotiorum, and C. unicolor (see Supplementary Materials). The following procedure was applied to the microorganism testing. The assays of fungi inhibition growth were performed at a basal concentration of 50 µg/mL for all compounds, and detailed experiments were extended for testing between 0 and 50 µg/mL (0, 6.25, 12.5, 25.0, and 50.0 µg/mL) for selected compounds. The tests were carried out on Petri dishes (diameter 60 mm) with PDA medium containing appropriate compound, co-solvent control, and hydrazide–hydrazone dissolved in co-solvent assay. A piece of mycelium with a 5 mm edge taken from the outer edge of the growing fungi on the PDA plate with co-solvent was transferred to a central part of the PDA plate with the examined compound. The plates thus inoculated were incubated at 22 °C in the dark for a time when the control plate containing only the co-solvent was covered entirely with the tested microorganism. For B. cinerea and S. sclerotiorum, the test took 3 days, and for C. unicolor, it took 7 days. Each assay was performed at least in triplicate. […] Model parameters c and e were estimated using the nonlinear least-squares method. Parameters d and b (with two exceptions) were fixed and assumed to be equal. Based on estimated parameters, the values of IC50 were determined. […] The IC50 values were calculated only in cases when the model predicted a decrease in growth rate by more than 50%.
(§12) In vitro antifungal activity
(§13) Prior to the fungicidal activity assay of hydrazide-hydrazones 1–35, we considered ethanol (EtOH) and DMSO as potential dissolution media for tested compounds.
(§14) EtOH and DMSO with a final concentration between 0.1–1.0% (v/v) in a PDA medium were applied to evaluate the inhibition growth of B. cinerea, S. sclerotiorum, and C. unicolor (see Table S3). The following procedure was applied to the microorganism testing with the hydrazide-hydrazones. The assays of fungi inhibition growth were performed at a basal concentration of 50 µg/mL for all compounds, and detailed experiments were extended for testing selected molecules 18, 19, 27, […]
(§15) Table S2. In vitro antifungal activity for DMSO and ethanol co-solvents.

[2] = system: Botrytis cinerea strain FBc05; assay: as above; type: cell-based; conditions: Botrytis cinerea, FBC05; screening at basal 50 µg/mL, PDA medium, mean ± SD of three determinations; read-out: fungal growth inhibition, B. cinerea
Protocol: as §10, §11, §12, §13, §14, §15

[3] = system: Sclerotinia sclerotiorum strain FSc10; assay: as above; type: cell-based; conditions: screening at basal 50 µg/mL, PDA medium, mean ± SD of three determinations
Protocol: as §10, §11, §12, §13, §14, §15

S. sclerotiorum = conditions: cited from earlier work
B. cinerea [4] = conditions: cited from earlier work
[5] = system: Fusarium oxysporum Schltdl.; set-up: method as in PMID 24582134; conditions: cited from earlier work
Rhizopus oryzae = system: Rhizopus oryzae; set-up: method as in PMID 24582134; conditions: cited from earlier work
[6] = system: Alternaria alternata (Fr.) Keissl; set-up: method as in PMID 24582134; conditions: cited from earlier work
B. cinerea [7] = system: B. cinerea; set-up: method as in PMID 24582134; conditions: cited from earlier work
Candida = system: Candida; set-up: method as in PMID 23142671; conditions: cited from earlier work
Mahlavu line = system: Mahlavu line; set-up: method as in PMID 26695731; conditions: cited from earlier work
hepatitis C virus (HCV) = system: hepatitis C virus (HCV); set-up: method as in PMID 26695731; conditions: read-out: EC50 against HCV; cited from earlier work
[8] = system: acetylcholinesterase (AChE); set-up: method as in PMID 33668452; conditions: cited from earlier work
MPO (myeloperoxidase) = biological target: MPO (myeloperoxidase); set-up: method as in PMID 32278712; conditions: cited from earlier work

## N.N.[Cl][Pt][Cl] [Cis-platin, reference compound]
MCF-10A cells; 72 h exposure, SRB method
  IC50: 9.27 ± 1.63 µM
Balb/3T3 cells; 72 h exposure, SRB method
  IC50: 9.8 ± 1.93 µM

## O=C(O)c1cc(O)c(O)c(O)c1 [3,4,5-hba, gallic acid, reference compound]
MCF-10A cells; Homo sapiens, MCF-10A, 72 h
  IC50: 174 ± 14.3 µM
Balb/3T3 cells; Mus musculus, BALB/3T3, 72 h
  IC50: 163 ± 1.95 µM

## O=C(N/N=C/c1cc(O)c(O)cc1O)c1ccc(O)cc1 [compound 23]
other
  melting point: 253 °C (dec.)
[1]
  inhibition of growth at 50 µg/mL: 5.8 ± 2.7%
[2]
  inhibition of growth at 50 µg/mL: 6.8 ± 2.5%
[3]; Sclerotinia sclerotiorum, FSC10, read-out: fungal growth inhibition, S. sclerotiorum
  inhibition of growth at 50 µg/mL: 2.7 ± 0.4%

## COc1ccc(/C=N/NC(=O)c2cn(C)c3ccccc3c2=O)cc1OC [(E)-N′-(3,4-dimethoxybenzylidene)-1-methyl-4-oxo-1,4-dihydroquinoline-3-carbohydrazide]
S. sclerotiorum
  S. sclerotiorum growth inhibition: more than 80%

## Cn1cc(C(=O)N/N=C/c2cc3ccccc3[nH]2)c(=O)c2ccccc21 [(E)-N′-((1H-indol-2-yl)methylene)-1-methyl-4-oxo-1,4-dihydroquinoline-3-carbohydrazide]
S. sclerotiorum
  S. sclerotiorum growth inhibition: more than 80%

## CO/C=C(/C(=O)OC)c1ccccc1Oc1cc(Oc2ccccc2C#N)ncn1 [Azoxystrobin, reference compound]
Balb/3T3 cells; 72 h exposure, SRB method
  IC50: 0.1 ± 0.03 µM

## CC1N[C@H](C(=O)NN=Cc2ccc(Cl)c(Cl)c2)Cc2c1[nH]c1ccccc21 (stereo partly drawn) [N′-(3,4-dichloro-benzylidene)-(3S)-1-methyl-2,3,4,9-tetrahydro-1H-pyrido[3,4-b]indole-3-carbohydrazide]
S. sclerotiorum
  growth inhibition of S. sclerotiorum: more than 80%
B. cinerea [4]
  growth inhibition of B. cinerea: more than 80%

## O=C(NN=Cc1cn(-c2ccccc2Cl)nn1)c1ccccc1 [((1-(2-chlorophenyl)-1H-1,2,3-triazol-4-yl)methylene)benzohydrazide]
S. sclerotiorum; 25 µg/mL
  activity against S. sclerotiorum: inactive

## Cc1ccc(C(C)C)c(O)c1 [thymol]
[5]
  MIC (minimum inhibitory concentration), Fusarium oxysporum: 300 µg/mL (≈ 2000 µM)
Rhizopus oryzae
  MIC (minimum inhibitory concentration), Rhizopus oryzae: 450 µg/mL (≈ 3000 µM)
[6]
  MIC (minimum inhibitory concentration), Alternaria alternata: 400 µg/mL (≈ 2660 µM)
B. cinerea [7]
  MIC (minimum inhibitory concentration), B. cinerea: 300 µg/mL (≈ 2000 µM)

## CC(=O)N1CCN(c2ccc(OCC3COC(Cn4ccnc4)(c4ccc(Cl)cc4Cl)O3)cc2)CC1 (centres unmarked) [ketoconazole, reference compound]
Candida
  MIC, anticandidal activity: 1 to 31 µg/mL

## CC1N[C@H](C(=O)NN=Cc2ccc(C(C)(C)C)cc2)Cc2c1[nH]c1ccccc21 (stereo partly drawn) [N′-(4-tert-butyl-benzylidene)-(3S)-1-methyl-2,3,4,9-tetra-hydro-1H-pyrido [3,4-b]indole-3-carbohydrazide]
S. sclerotiorum
  growth inhibition of S. sclerotiorum: more than 80%
B. cinerea [4]
  growth inhibition of B. cinerea: more than 80%

## O=C(N/N=C/c1ccc(O)cc1O)c1ccccc1 [compound 22]
other
  melting point: 255 to 256 °C (dec.)
[1]
  inhibition of growth at 50 µg/mL: 75.4 ± 6.2%
[2]
  inhibition of growth at 50 µg/mL: 32 ± 2.9%
[3]
  fungal growth inhibition, S. sclerotiorum: n.o.

## COc1cc(/C=N/NC(=O)c2ccc(O)cc2)c(O)c(CO)c1 [compound 26, 4-Hydroxy-N′-[(E)-(2-hydroxy-3-hydroxymethyl-5-methoxyphenyl)methylidene]benzohydrazide]
other
  melting point: 219 to 220 °C
[1]
  inhibition of growth at 50 µg/mL: 54.6 ± 3.1%
[2]
  inhibition of growth at 50 µg/mL: 3.2 ± 0.5%
[3]
  fungal growth inhibition, S. sclerotiorum: n.o.

## O=C(NN=Cc1ccccn1)c1cc(-c2ccc(F)cc2F)ccc1O [XI]
Mahlavu line
  EC50: 4.74 µM
Hepatitis C virus (HCV)
  EC50: 3.9 µM

## O=C(N/N=C/c1ccccc1O)c1ccc(C(F)(F)F)cc1 [IX]
[8]
  BuChE/AChE selectivity: 18.6

## O=C(N/N=C/c1cc(O)ccc1O)c1ccncc1 [X]
MPO (myeloperoxidase)
  IC50: 4.8 µM

## COc1ccc2c3c1O[C@H]1C[C@@H](O)C=C[C@@]31CCN(C)C2 [galantamine, reference compound]
[8]
  BuChE/AChE selectivity: 1.8

## Cc1ccc(C(=O)ON=C2C=CC(=NNC(=O)c3ccccc3)C=C2)cc1 [N′-(4-{[(4-methylbenzoyl)oxy]imino}cyclohexa-2,5-dien-1-ylidene)benzohydrazide]
B. cinerea [4]
  restriction of mycelium growth, B. cinerea: 35%
